Where “and” joins values, the source holds several entries; their conditions need not be identical. Equal entries are not always repeated. Where two headings read alike, the source gives them in different places.
Experiments:
[1] = molecular target: T1, IDE (Homo sapiens, UniProt P14735); assay: In vitro IDE enzymatic assay (hydrolysis of FRET1, SP1, FAβB, 125I-insulin or insulin by HTRF); assay type: biochemical; set-up: made in house; host or cells: bacteria; conditions: for IC50: commercially available hydroxamic acids
[2] = tested on: MMP-3; conditions: best known target MMP-3; no reference given; cited from earlier work
[3] = tested on: CHO-IR cells
[4] = tested on: IR autophosphorylation (Tyr 1146) in CHO-IR cells; assay: IR autophosphorylation assay (ELISA); assay type: cell-based, human; conditions: CHO-IR cells cold-loaded with insulin, 10 µM inhibitor, 5 min at 37°C
Method: CHO-IR cells were grown to near confluency in 6-well plates, washed, then starved for 6 h in insulin-free medium (DMEM/0.1% BSA). Cells were then cold-loaded with human insulin essentially as described. Briefly, after cooling the cells to 4°C, the medium was replaced with ice-cold HBSS/1% BSA supplemented with insulin (10 nM), incubated at 4°C for 1 h, washed 3 times with ice-cold HBSS/1% BSA. After addition of ice-cold HBSS/1% BSA supplemented with IDE inhibitors (10 µM) or DMSO, the cells were incubated at 37°C for 5 min, then rapidly cooled on ice. Cell lysates were harvested using manufacturer-provided cell-lysis buffer (Cell Signaling Technology) supplemented with additional phosphatase inhibitors (Millipore). IR autophosphorylation (Tyr 1146) and total IR levels were quantified by ELISAs (Cell Signaling Technology), and confirmed by western blotting with the same antibodies used for ELISAs or GAPDH as a loading control.

[5] = molecular target: T2, cathepsin D (Bos taurus, UniProt P80209); assay: Cathepsin D activity (Cathepsin D Assay Kit); assay type: biochemical
T2 construct: purchased Sigma-Aldrich

[6] = tested on: CHO-IR cells; assay: Cell-based extracellular insulin degradation assay, CHO-IR cells
Text: (§1) Recombinant human insulin (Sigma) was applied to CHO-IR cells or HeLa cells grown to near-confluency on 96-well plates under normal cell culture conditions, and its disappearance over time in the presence of different concentrations of IDE inhibitors or vehicle was quantified using a HTRF-based insulin assay (CIS-Bio). CHO-IR cells were a generous gift from Dr. Michel Bernier (National Instutute on Aging) and HeLa cells were purchased from American Type Culture Collection.

[7] = tested on: CHO-IR cells; assay: Live-cell imaging of intracellular insulin catabolism (FITC-ins); assay type: cell-based; conditions: FITC-ins-loaded CHO-IR cells, Ii1 10 µM, 22°C
Method: CHO-IR cells were cultured on poly-D-lysine glass bottom culture dishes (MatTek Corp.), loaded with FITC-ins (2 µM; Invitrogen) for 2 h at 37°C, washed with Hank's balanced salt solution (HBSS), then imaged consecutively at fixed intervals by fluorescence microscopy at 22°C. Intracellular and extracellular fluorescence in the resulting images was quantified using MetaMorph software according to manufacturer's recommendations (Molecular Devices).

[8] = tested on: HeLa cells; assay: Cell-based extracellular insulin degradation assay, HeLa cells
Text: as §1

[9] = tested on: CHO-IR cells; assay: Quantification of prebound 125I-insulin catabolism; assay type: cell-based; conditions: 10 µM inhibitor, 5 min at 37°C
Method: Confluent monolayers of CHO-IR cells grown in 6-well culture dishes were cold loaded with 240 pM ^125I-insulin for 1 h and washed 3 times with ice-cold HBSS/1% BSA. […] Following harvesting of cells by scraping, ^125I levels were quantified by gamma counter (Beckman).

[10] = tested on: MMP-13; conditions: best known target MMP-13; no reference given; cited from earlier work
[11] = molecular target: T1, IDE; assay: Cell-based assays (not shown)
[12] = molecular target: T1, IDE; assay: High-throughput screening, Aβ degradation assay; assay type: biochemical; conditions: high-throughput screening hit
Text: The few IDE inhibitors currently in use are generally non-selective and/or highly toxic, and all suffer from extremely low potency, requiring mM concentrations to achieve complete inhibition (Table S1). To develop improved inhibitors of IDE, we initially conducted high-throughput screening on ∼115,000 compounds, using a previously developed Aβ degradation assay. Although several inhibitors were discovered, most of these were either toxic, thiol-alkylating compounds [18] […] Among the remaining inhibitors, just a single compound, known as nullscript

[13] = tested on: MMP-8; conditions: best known target MMP-8; no reference given; cited from earlier work
[14] = molecular target: T1, IDE; conditions: cited from earlier work; for IC50: known IDE inhibitors, no reference given
[15] = tested on: MMP-2; conditions: best known target MMP-2; no reference given; cited from earlier work
[16] = tested on: TACE; conditions: best known target TACE; no reference given; cited from earlier work
[17] = focused library of retro-inverso peptide hydroxamates Xaa-Arg-Tyr, modification at P1', Fig. 2B, read-out: Ki

T1 sequence (P14735 whole entry): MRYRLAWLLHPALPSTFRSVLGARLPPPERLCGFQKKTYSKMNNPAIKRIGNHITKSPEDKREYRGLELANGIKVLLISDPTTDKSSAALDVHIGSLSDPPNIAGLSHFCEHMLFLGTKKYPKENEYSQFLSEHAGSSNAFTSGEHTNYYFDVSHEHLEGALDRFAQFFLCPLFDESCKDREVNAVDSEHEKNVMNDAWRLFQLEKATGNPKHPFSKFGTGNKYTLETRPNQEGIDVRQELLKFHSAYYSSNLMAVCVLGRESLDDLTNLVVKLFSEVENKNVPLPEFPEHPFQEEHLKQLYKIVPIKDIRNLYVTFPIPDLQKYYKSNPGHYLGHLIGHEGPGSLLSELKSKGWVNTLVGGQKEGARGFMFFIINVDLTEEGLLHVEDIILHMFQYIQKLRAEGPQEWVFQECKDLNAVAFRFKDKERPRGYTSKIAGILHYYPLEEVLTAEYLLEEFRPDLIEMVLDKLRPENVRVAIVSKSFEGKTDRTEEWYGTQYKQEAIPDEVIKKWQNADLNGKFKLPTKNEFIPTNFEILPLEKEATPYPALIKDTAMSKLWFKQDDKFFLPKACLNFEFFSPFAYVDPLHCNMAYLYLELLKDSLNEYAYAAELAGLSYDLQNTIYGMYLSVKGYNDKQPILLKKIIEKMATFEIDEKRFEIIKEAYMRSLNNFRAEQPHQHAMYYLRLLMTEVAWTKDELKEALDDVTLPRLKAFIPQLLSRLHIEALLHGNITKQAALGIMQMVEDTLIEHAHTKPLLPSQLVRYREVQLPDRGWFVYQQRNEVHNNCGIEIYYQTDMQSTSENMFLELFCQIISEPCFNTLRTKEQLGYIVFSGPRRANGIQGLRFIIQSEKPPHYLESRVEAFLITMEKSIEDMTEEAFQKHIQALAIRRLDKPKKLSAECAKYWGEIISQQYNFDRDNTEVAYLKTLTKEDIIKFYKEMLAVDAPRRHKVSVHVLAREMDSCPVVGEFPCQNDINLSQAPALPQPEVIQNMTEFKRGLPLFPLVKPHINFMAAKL
T2 sequence (P80209 45-390): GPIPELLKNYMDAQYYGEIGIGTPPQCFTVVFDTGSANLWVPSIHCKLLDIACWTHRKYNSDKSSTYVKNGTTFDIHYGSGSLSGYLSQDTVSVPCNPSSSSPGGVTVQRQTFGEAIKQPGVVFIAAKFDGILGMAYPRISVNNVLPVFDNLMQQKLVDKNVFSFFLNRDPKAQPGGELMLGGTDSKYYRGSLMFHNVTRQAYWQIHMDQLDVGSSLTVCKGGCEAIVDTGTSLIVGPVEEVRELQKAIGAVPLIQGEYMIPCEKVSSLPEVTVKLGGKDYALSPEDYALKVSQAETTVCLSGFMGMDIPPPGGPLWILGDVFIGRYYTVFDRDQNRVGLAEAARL

N=C(N)NCCC[C@@H](NC(=O)[C@H](N)Cc1ccc(O)cc1)C(=O)N[C@@H](CC(=O)NO)Cc1cccc(F)c1 [3-fluorophenylalanine]
Ki [1, 17]: 7000 nM

COc1ccc(S(=O)(=O)N(CC(=O)NO)CC(C)C)cc1 [MMP-3 Inhibitor II, reference compound]
IC50 [2]: 130 nM
IC50 [1]: > 100000 nM

N=C(N)NCCC[C@H](NC(=O)[C@@H](CC(=O)NO)Cc1ccc2ccccc2c1)C(=O)N[C@@H](Cc1c[nH]c2ccccc12)C(=O)N[C@@H](CCC(=O)O)C(N)=O [Ii1]
toxicity [3]: No toxicity
insulin-stimulated IR autophosphorylation [4]: consistently potentiated
inhibition of cathepsin D [5]: not
IC50 for inhibition of degradation of extracellular insulin [6]: comparable to that obtained in vitro
insulin catabolism (progress curve) ([6]; Ii1 10 µM): completely inhibited
intra- and extracellular FITC fluorescence over time [7]: remained essentially constant
IC50 for inhibition of degradation of extracellular insulin [8]: comparable to that obtained in vitro
insulin catabolism (progress curve) ([8]; Ii1 10 µM): completely inhibited
Hill slopes for inhibition ([1]; all substrates tested): < 1
Ki ([1]; conventional peptide hydroxamates, Fig. 1, read-out: Ki): 1.7 nM and ~1.7 nM
mode of inhibition ([1]; hydrolysis of Aβ): purely competitive
mode of inhibition ([1]; hydrolysis of insulin): purely competitive
Ki ([1]; ki^app, Substrate: 125I-Ins): 16.3 ± 4.2 nM
Ki ([1]; ki^app, Substrate: FAβB): 15.7 ± 2 nM
Ki ([1]; ki^app, Substrate: HTRF-Ins): 16.6 ± 3.1 nM
Ki ([1]; ki^app, Substrate: SP1): 2.55 ± 0.84 nM
decrease of prebound 125I-insulin [9]: inhibited completely

N=C(N)NCCC[C@@H](NC(=O)[C@H](N)Cc1ccc(O)cc1)C(=O)N[C@@H](CC(=O)NO)C(c1ccccc1)c1ccccc1 [diphenylalanine]
Ki [1, 17]: > 500000 nM

CC(=O)N[C@H](CCC(=O)NCCNc1cccc2c(S(=O)(=O)O)cccc12)C(=O)N[C@H](Cc1ccc(O)cc1)C(=O)N[C@H](Cc1ccc(C(=O)c2ccccc2)cc1)C(=O)N[C@@H](CC(=O)NO)Cc1ccc2ccccc2c1 [ML3-XF, Hx-2Nap-Bpa-Tyr-Glu(EDANS)-Ac]
insulin-stimulated IR autophosphorylation [4]: consistently potentiated
decrease of prebound 125I-insulin [9]: inhibited completely

N=C(N)NCCC[C@@H](NC(=O)[C@H](N)Cc1ccc(O)cc1)C(=O)N[C@@H](CC(=O)NO)Cc1cccc2ccccc12 [1-naphthylalanine]
Ki [1, 17]: 700 nM

CNC(=O)C(CCc1ccccc1)NC(=O)C(CC(=O)NO)CC(C)C (stereo not shown) [MMP Inhibitor III, reference compound]
IC50 [10]: 0.1 nM
IC50 [1]: > 100000 nM

O=C(CCCN1C(=O)c2cccc3cccc(c23)C1=O)NO [Nullscript]
effect in cell-based assays [11]: ineffective
IC50 values [12]: submicromolar
IC50 [1]: 900 nM

CNC(=O)[C@H](Cc1c[nH]c2ccccc12)NC(=O)[C@@H](CC(=O)NO)CC(C)C [GM6001 (Galardin), reference compound]
IC50 [1]: 6000 nM

O=C(O)CN(CCN(CC(=O)O)CC(=O)O)CC(=O)O [EDTA]
inhibition of IDE ([14]; ref [18], [40]): does not inhibit IDE except after prolonged incubation

CC(C)(C)c1ccc(C[C@H](CC(=O)NO)NC(=O)[C@@H](CCCNC(=N)N)NC(=O)[C@H](N)Cc2ccc(O)cc2)cc1 [4-(tert-butyl)-phenylalanine]
Ki [1, 17]: 16000 nM

c1cnc2c(c1)ccc1cccnc12 [1,10 phenanthroline]
IC50 [14]: 300000 nM

CC(C)C[C@H](CC(=O)NO)C(=O)N[C@@H](Cc1ccc2ccccc2c1)C(=O)N[C@@H](C)C(N)=O [TAPI-0, reference compound]
IC50 [10]: 0.2 nM
IC50 [1]: 9000 nM

O=C(NO)[C@@H](Cc1ccccc1)NS(=O)(=O)c1ccc(-c2ccccc2)cc1 [MMP-2/9 Inhibitor II, reference compound]
IC50 [15]: 17 nM
IC50 [1]: > 100000 nM

COc1ccc(S(=O)(=O)N2Cc3ccccc3C[C@@H]2C(=O)NO)cc1 [MMP-8 Inhibitor I, reference compound]
IC50 [13]: 4 nM
IC50 [1]: > 100000 nM

N=C(N)NCCC[C@@H](NC(=O)[C@H](N)Cc1ccc(O)cc1)C(=O)N[C@@H](CC(=O)NO)Cc1ccc(F)cc1 [4-fluorophenylalanine]
Ki [1, 17]: 7000 nM

N#Cc1ccc(-c2ccc(OCCC(=O)NO)cc2)cc1 [MMP-3 Inhibitor VII, reference compound]
IC50 [2]: 25 nM
IC50 [1]: > 100000 nM

CC(C)C[C@H](CC(=O)NO)C(=O)N[C@@H](Cc1ccc2ccccc2c1)C(=O)N[C@@H](C)C(=O)NCCN [TAPI-1, reference compound]
IC50 [16]: 100 nM
IC50 [1]: 3000 nM

CCN1C(=O)C=CC1=O [N-ethylmaleimide]
IC50 [14]: 220000 nM

CC(C)C[C@H](CC(=O)NO)C(=O)N[C@H](C(=O)N[C@@H](C)C(=O)NCCN)C(C)(C)C [TAPI-2, reference compound]
IC50 [16]: 5000 nM
IC50 [1]: 11000 nM

N=C(N)NCCC[C@@H](NC(=O)[C@H](N)Cc1ccc(O)cc1)C(=O)N[C@@H](CC(=O)NO)Cc1ccc2ccccc2c1 [2-naphthylalanine]
gain in potency relative to Phe at P1' ([1]; retro-inverso library): ~100 fold
